Measured values taken from patent publication US20130104445A1, “ESSENTIAL OILS AND THEIR COMPOUNDS AS STINK BUG REPELLENTS” (priority 2011, published 2013).

System: BMSB adult or nymph antenna
Assay: GC-EAD antennal responses to essential oil headspace (SPME) or synthetic SSB pheromone mixture
Parameters: species or system Halyomorpha halys
Protocol: Headspace volatiles from several essential oils (1 ml each in a closed 20 ml glass vial) were sampled via Solid-Phase Micro-Extraction (SPME) (CAR/PDMS, 85 μm, Supelco, Bellefonte, Pa.) for 30 sec before GC-EAD and GC-MS analyses.
BMSB nymphs and adults for electrophysiological study were taken from a lab colony originally collected from Pennsylvania, U.S.A., during the overwintering period.
SPME samples of the various essential oils were injected splitless into a Varian CP-3800 GC equipped with a polar column (HP-INNOWAX; 30 m×0.53 mm×1.0 μm film thickness; Agilent Technologies, Wilmington, Del., USA) and a 1:1 effluent splitter that allowed simultaneous flame ionization detection (FID) and electroantennographic detection (EAD) of BMSB adult or nymph antenna to the separated volatile compounds. Helium was used as the carrier gas, and the injector and detector temperatures were 250° C. and 300° C., respectively. Column temperature was 50° C. for 1 min, rising to 240° C. at 10° C./min, and then held for 10 min. The outlet for the EAD was held in a humidified air stream flowing at 0.5 m/sec over the antennal preparation. EAD recordings were made using silver wire-glass capillary electrodes filled with Beadle-Ephrussi Ringer on freshly cut antennae. The antennal signals were stored and analyzed on a PC equipped with a serial IDAC interface box and the program EAD ver. 2.5 (Syntech, Hilversum, The Netherlands). The same GC-EAD recording procedure was also employed on the BMSB antennae against a synthetic mixture of the Spined soldier bug aggregation pheromone components (trans-2-hexenal, benzyl alcohol, and α-terpineol; 200 ng/μl each in hexane, 2 μl injected).
Antennally active compounds (FID peaks) in the SPME samples of essential oils were identified by GC-MS on an HP 6890 GC series coupled with an HP 5973 Mass Selective Detector using the same type of GC column and conditions as described above. Compounds were identified by comparison of retention times with those of authentic standards and with mass spectra of standards.

[1] = from the lemongrass oil, FIG. 4
[2] = synthetic mixture of SSB aggregation pheromone components, FIG. 12

CC12CCC(CC1)C(C)(C)O2 [1,8-cineole]
EAD response of BMSB antennae (from rosemary oil, FIG. 8): significant (strongly or weakly) EAD-responses

COc1ccc(C)cc1 [4-methylanisole]
EAD response of BMSB antennae (from ylang ylang oil, FIG. 7): significant (strongly or weakly) EAD-responses

CCCCCC(=O)CCC [4-nonanone]
EAD response of BMSB antennae [1]: weakly

CC(C)=CCC/C(C)=C/C=O [E-citral]
EAD response of BMSB antennae [1]: strongly responded

CC(C)=CCC/C(C)=C\C=O [Z-citral]
EAD response of BMSB antennae [1]: strongly responded

CC(=O)OCc1ccccc1 [benzyl acetate]
EAD response of BMSB antennae (from ylang ylang oil, FIG. 7): significant (strongly or weakly) EAD-responses

OCc1ccccc1 [benzyl alcohol]
EAD response of BMSB antennae [2]: strong antennal responses

CC12CCC(CC1=O)C2(C)C (stereo not drawn) [camphor]
EAD response of BMSB antennae (from rosemary oil, FIG. 8): significant (strongly or weakly) EAD-responses

C=CCc1ccc(O)c(OC)c1 [eugenol]
EAD response of BMSB antennae (from clove oil, FIG. 6): significant (strongly or weakly) EAD-responses

CC(C)=CCC/C(C)=C/CO [geraniol]
EAD response of BMSB antennae (from geranium oil, FIG. 10): significant (strongly or weakly) EAD-responses

COC(=O)c1ccccc1 [methyl benzoate]
EAD response of BMSB antennae (from ylang ylang oil, FIG. 7): significant (strongly or weakly) EAD-responses

COC(=O)c1ccccc1O [methyl salicylate]
EAD response of BMSB antennae (from wintergreen oil, FIG. 9): significant (strongly or weakly) EAD-responses

CC(C)=C1CC[C@@H](C)CC1=O [pulegone]
EAD response of BMSB antennae (from pennyroyal oil, FIG. 11): significant (strongly or weakly) EAD-responses

CCC/C=C/C=O [trans-2-hexenal]
EAD response of BMSB antennae [2]: strong antennal responses

CC1=CCC(C(C)(C)O)CC1 (stereo not drawn) [α-terpineol]
EAD response of BMSB antennae [2]: weak activity

C=C1CC[C@@H]2[C@H]1[C@H]1[C@H](C(C)C)CC[C@]12C [β-bourbernene]
EAD response of BMSB antennae (from geranium oil, FIG. 10): significant (strongly or weakly) EAD-responses

CC(C)=CCCC(C)CCO (stereo not drawn) [β-citronellol]
EAD response of BMSB antennae (from geranium oil, FIG. 10): significant (strongly or weakly) EAD-responses

P/I-menthones
EAD response of BMSB antennae (from geranium oil, FIG. 10): significant (strongly or weakly) EAD-responses | EAD response of BMSB antennae (from pennyroyal oil, FIG. 11): significant (strongly or weakly) EAD-responses

cis/trans-rose oxides
EAD response of BMSB antennae (from geranium oil, FIG. 10): significant (strongly or weakly) EAD-responses

l-carvone
EAD response of BMSB antennae (from spearmint oil, FIG. 5): significant (strongly or weakly) EAD-responses
